Experimental data as given in PubChem BioAssay (NCI).
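All cell lines were grown in 96-well plates and treated with compound for 48 hours. TGI denotes the concentration required for complete inhibition of growth.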

Key:
Test in all cases: growth of human tumour cells (NCI), 48 h
RXF 393 renal = test system: RXF 393 renal
HCT-116 colon = test system: HCT-116 colon
MDA-MB-231 breast = test system: MDA-MB-231 breast
LOX IMVI melanoma = test system: LOX IMVI melanoma
SW-620 colon = test system: SW-620 colon
NCI-H226 lung = test system: NCI-H226 lung
A498 renal = test system: A498 renal
OVCAR-8 ovarian = test system: OVCAR-8 ovarian
MCF7 breast = test system: MCF7 breast
KM12 colon = test system: KM12 colon
DU-145 prostate = test system: DU-145 prostate
TK-10 renal = test system: TK-10 renal
NCI-H23 lung = test system: NCI-H23 lung
K-562 leukemia = test system: K-562 leukemia
T-47D breast = test system: T-47D breast
MDA-N = test system: MDA-N
PC-3 prostate = test system: PC-3 prostate
SF-268 CNS = test system: SF-268 CNS
SK-MEL-2 melanoma = test system: SK-MEL-2 melanoma
BT-549 breast = test system: BT-549 breast
UO-31 renal = test system: UO-31 renal
RPMI-8226 leukemia = test system: RPMI-8226 leukemia
MOLT-4 leukemia = test system: MOLT-4 leukemia
CAKI-1 renal = test system: CAKI-1 renal
SNB-75 CNS = test system: SNB-75 CNS
OVCAR-3 ovarian = test system: OVCAR-3 ovarian
HL-60(TB) leukemia = test system: HL-60(TB) leukemia
EKVX NSCLC = test system: EKVX NSCLC
UACC-257 melanoma = test system: UACC-257 melanoma
M14 melanoma = test system: M14 melanoma
HOP-92 NSCLC = test system: HOP-92 NSCLC
786-0 renal = test system: 786-0 renal
SF-295 CNS = test system: SF-295 CNS
HOP-62 NSCLC = test system: HOP-62 NSCLC
SNB-19 CNS = test system: SNB-19 CNS
SK-OV-3 ovarian = test system: SK-OV-3 ovarian
OVCAR-4 ovarian = test system: OVCAR-4 ovarian
CCRF-CEM leukemia = test system: CCRF-CEM leukemia
HS 578T breast = test system: HS 578T breast
U251 CNS = test system: U251 CNS
SK-MEL-28 melanoma = test system: SK-MEL-28 melanoma
NCI-H522 lung = test system: NCI-H522 lung
MALME-3M melanoma = test system: MALME-3M melanoma
IGROV1 ovarian = test system: IGROV1 ovarian
COLO 205 colon = test system: COLO 205 colon
HT29 colon = test system: HT29 colon
SN12C renal = test system: SN12C renal
SK-MEL-5 melanoma = test system: SK-MEL-5 melanoma
MDA-MB-435 = test system: MDA-MB-435
UACC-62 melanoma = test system: UACC-62 melanoma
OVCAR-5 ovarian = test system: OVCAR-5 ovarian
A549 NSCLC = test system: A549 NSCLC
ACHN renal = test system: ACHN renal
SF-539 CNS = test system: SF-539 CNS
HCT-15 colon = test system: HCT-15 colon
SR leukemia = test system: SR leukemia
NCI-H460 lung = test system: NCI-H460 lung
HCC-2998 colon = test system: HCC-2998 colon
NCI/ADR-RES ovarian = test system: NCI/ADR-RES ovarian

**Q.** Which TGI (RXF 393 renal) does the source give for `COc1cc(C2c3cc4c(cc3OC(N3CCCCC3)C2C)OCO4)cc(OC)c1OC` (centres undefined) here?
**A.** Its TGI is 5.49 µM.

**Q.** What about the TGI (HCT-116 colon) of the same compound?
**A.** The TGI was 15.3 µM.

**Q.** What about the TGI (MDA-MB-231 breast) of the same compound?
**A.** Its TGI is 21 µM.

**Q.** And the TGI (LOX IMVI melanoma)?
**A.** Its TGI is 45 µM.

**Q.** And the TGI (SW-620 colon)?
**A.** The TGI was over 55.4 µM.

**Q.** What about the TGI (NCI-H226 lung) of the same compound?
**A.** The TGI was 13.5 µM.

**Q.** And the TGI (A498 renal)?
**A.** Its TGI is 12.8 µM.

**Q.** And the TGI (OVCAR-8 ovarian)?
**A.** The TGI was over 63.6 µM.

**Q.** What about the TGI (MCF7 breast) of the same compound?
**A.** The TGI was 19.4 µM.

**Q.** And the TGI (KM12 colon)?
**A.** Its TGI is 37.4 µM.

**Q.** And the TGI (DU-145 prostate)?
**A.** The TGI was 19.8 µM.

**Q.** What about the TGI (TK-10 renal) of the same compound?
**A.** Its TGI is 35.4 µM.

**Q.** And the TGI (NCI-H23 lung)?
**A.** Its TGI is over 49.8 µM.

**Q.** What about the TGI (K-562 leukemia) of the same compound?
**A.** Its TGI is 13.7 µM.

**Q.** What about the TGI (T-47D breast) of the same compound?
**A.** The TGI was over 53.8 µM.

**Q.** What about the TGI (MDA-N) of the same compound?
**A.** The TGI was 3.28 µM.

**Q.** And the TGI (PC-3 prostate)?
**A.** The TGI was over 100 µM.

**Q.** And the TGI (SF-268 CNS)?
**A.** Its TGI is over 53.7 µM.

**Q.** And the TGI (SK-MEL-2 melanoma)?
**A.** Its TGI is 14.9 µM.

**Q.** And the TGI (BT-549 breast)?
**A.** Its TGI is over 100 µM.

**Q.** And the TGI (UO-31 renal)?
**A.** Its TGI is 46.2 µM.

**Q.** And the TGI (RPMI-8226 leukemia)?
**A.** The TGI was 37.9 µM.

**Q.** And the TGI (MOLT-4 leukemia)?
**A.** Its TGI is 67.4 µM.

**Q.** And the TGI (CAKI-1 renal)?
**A.** Its TGI is 17.5 µM.

**Q.** And the TGI (SNB-75 CNS)?
**A.** Its TGI is 19.3 µM.

**Q.** And the TGI (OVCAR-3 ovarian)?
**A.** The TGI was 6.66 µM.

**Q.** And the TGI (HL-60(TB) leukemia)?
**A.** The TGI was over 22.2 µM.

**Q.** What about the TGI (EKVX NSCLC) of the same compound?
**A.** The TGI was over 100 µM.

**Q.** What about the TGI (UACC-257 melanoma) of the same compound?
**A.** Its TGI is over 82.7 µM.

**Q.** What about the TGI (M14 melanoma) of the same compound?
**A.** Its TGI is 15 µM.

**Q.** And the TGI (HOP-92 NSCLC)?
**A.** Its TGI is 48.1 µM.

**Q.** What about the TGI (786-0 renal) of the same compound?
**A.** Its TGI is 16.3 µM.

**Q.** And the TGI (SF-295 CNS)?
**A.** Its TGI is 5.77 µM.

**Q.** What about the TGI (HOP-62 NSCLC) of the same compound?
**A.** The TGI was 10.2 µM.

**Q.** What about the TGI (SNB-19 CNS) of the same compound?
**A.** Its TGI is 26.2 µM.

**Q.** And the TGI (SK-OV-3 ovarian)?
**A.** The TGI was 12.6 µM.

**Q.** And the TGI (OVCAR-4 ovarian)?
**A.** Its TGI is over 100 µM.

**Q.** And the TGI (CCRF-CEM leukemia)?
**A.** The TGI was 23.2 µM.

**Q.** What about the TGI (HS 578T breast) of the same compound?
**A.** Its TGI is 7.23 µM.

**Q.** And the TGI (U251 CNS)?
**A.** The TGI was 12.7 µM.

**Q.** What about the TGI (SK-MEL-28 melanoma) of the same compound?
**A.** Its TGI is over 100 µM.

**Q.** And the TGI (NCI-H522 lung)?
**A.** Its TGI is 9.99 µM.

**Q.** What about the TGI (MALME-3M melanoma) of the same compound?
**A.** The TGI was over 84.6 µM.

**Q.** And the TGI (IGROV1 ovarian)?
**A.** The TGI was 26 µM.

**Q.** And the TGI (COLO 205 colon)?
**A.** The TGI was 11.3 µM.

**Q.** And the TGI (HT29 colon)?
**A.** Its TGI is 19.8 µM.

**Q.** What about the TGI (SN12C renal) of the same compound?
**A.** The TGI was over 100 µM.

**Q.** And the TGI (SK-MEL-5 melanoma)?
**A.** The TGI was 17.6 µM.

**Q.** And the TGI (MDA-MB-435)?
**A.** The TGI was 2.91 µM.

**Q.** What about the TGI (UACC-62 melanoma) of the same compound?
**A.** Its TGI is 47 µM.

**Q.** And the TGI (OVCAR-5 ovarian)?
**A.** Its TGI is over 45.7 µM.

**Q.** And the TGI (A549 NSCLC)?
**A.** Its TGI is 36.1 µM.

**Q.** And the TGI (ACHN renal)?
**A.** The TGI was 28.7 µM.

**Q.** What about the TGI (SF-539 CNS) of the same compound?
**A.** The TGI was 5.9 µM.

**Q.** And the TGI (HCT-15 colon)?
**A.** The TGI was over 100 µM.

**Q.** What about the TGI (SR leukemia) of the same compound?
**A.** Its TGI is over 54.2 µM.

**Q.** What about the TGI (NCI-H460 lung) of the same compound?
**A.** Its TGI is 18 µM.

**Q.** What about the TGI (HCC-2998 colon) of the same compound?
**A.** The TGI was 8.39 µM.

**Q.** What about the TGI (NCI/ADR-RES ovarian) of the same compound?
**A.** The TGI was 17.1 µM.
